This passage reports T/C results from PubChem BioAssay AID330 (DTP/NCI, 2004).

Values joined by “and” are separate entries in the source; they are usually repeats but may differ in a detail not shown here. Equal entries are not always repeated. Toxic doses and inconclusive results are not listed.

This assay concerns P388 leukemia ip, CD2F1 mice, survival T/C. The assay can be described thus: NCI In Vivo Anticancer Drug Screen. Data for tumor model P388 Leukemia (intraperitoneal) in CD2F1 (CDF1) mice. The following applies: endpoint: median survival time, higher = longer survival. The method, boiled down: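 Mice carrying the transplanted tumor received test compound or vehicle. Survival was recorded in each group, and the value is the treated-group measurement divided by that of the vehicle-treated control group.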

The mark [1] stands for this setting: dose: 30.0 mg/kg/injection, schedule: Q01DX005 (ip), vehicle: saline.
[2] abbreviates: dose: 60.0 mg/kg/injection, schedule: Q01DX005 (ip), vehicle: saline.
Setting [3] is: dose: 25.0 mg/kg/injection, schedule: Q04DX002 (ip), vehicle: saline.
The mark [4] stands for this setting: dose: 50.0 mg/kg/injection, schedule: Q01DX005 (ip), vehicle: saline with Tween-80.
The mark [5] stands for this setting: dose: 100.0 mg/kg/injection, schedule: Q01DX005 (ip), vehicle: saline with Tween-80.
Setting [6] is: dose: 200.0 mg/kg/injection, schedule: Q01DX005 (ip), vehicle: saline with Tween-80.
The mark [7] stands for this setting: dose: 50.0 mg/kg/injection, schedule: Q01DX005 (ip), vehicle: Klucel (hydroxypropylcellulose) (HPC).
Where [8] appears, read: dose: 100.0 mg/kg/injection, schedule: Q01DX005 (ip), vehicle: Klucel (hydroxypropylcellulose) (HPC).
Setting [9] is: dose: 200.0 mg/kg/injection, schedule: Q01DX005 (ip), vehicle: Klucel (hydroxypropylcellulose) (HPC).
The mark [10] stands for this setting: dose: 50.0 mg/kg/injection, schedule: Q01DX009 (ip), vehicle: saline with Tween-80.
Where [11] appears, read: dose: 100.0 mg/kg/injection, schedule: Q01DX009 (ip), vehicle: saline with Tween-80.
Where [12] appears, read: dose: 200.0 mg/kg/injection, schedule: Q01DX009 (ip), vehicle: saline with Tween-80.
The mark [13] stands for this setting: dose: 60.0 mg/kg/injection, schedule: Q01DX005 (ip), vehicle: saline with Tween-80.
The mark [14] stands for this setting: dose: 120.0 mg/kg/injection, schedule: Q01DX005 (ip), vehicle: saline with Tween-80.
[15] abbreviates: dose: 240.0 mg/kg/injection, schedule: Q01DX005 (ip), vehicle: saline with Tween-80.
Where [16] appears, read: dose: 25.0 mg/kg/injection, schedule: Q04DX003 (ip), vehicle: saline with Tween-80.
Setting [17] is: dose: 50.0 mg/kg/injection, schedule: Q01DX009 (ip), vehicle: Klucel (hydroxypropylcellulose) (HPC).
[18] abbreviates: dose: 100.0 mg/kg/injection, schedule: Q01DX009 (ip), vehicle: Klucel (hydroxypropylcellulose) (HPC).
The mark [19] stands for this setting: dose: 200.0 mg/kg/injection, schedule: Q01DX009 (ip), vehicle: Klucel (hydroxypropylcellulose) (HPC).

As to `O=C(O)CC(SCP(=O)(O)O)C(=O)O` (centres undefined), the T/C by setting is: under setting [1], 98 % of control; under setting [2], 91 % of control; (dose: 120.0 mg/kg/injection, schedule: Q01DX005 (ip), vehicle: saline) 89 % of control; (dose: 240.0 mg/kg/injection, schedule: Q01DX005 (ip), vehicle: saline) 93 % of control and 97 % of control.

As for `CCC/C(=N\NC(N)=NC)c1ccc(Cl)cc1`, the T/C reads like this: under setting [3], 102 % of control; (dose: 50.0 mg/kg/injection, schedule: Q04DX002 (ip), vehicle: saline) 93 % of control.

As for `CCOC(=O)CCC1(C(=O)OC)C(=O)CCCCCCCC1C(=O)OC` (centres undefined), the T/C under setting [4] was 101 % of control, the T/C under setting [5] is 98 % of control and the T/C under setting [6] was 94 % of control.

For the compound `O=c1[nH]c(=O)c2[nH]c(=O)[nH]c(=O)c2[nH]1`, the T/C was 99 % of control under setting [7], 96 % of control under setting [8] and 103 % of control under setting [9].

Take `c1ccc2c(c1)[nH]c1c3ccccc3sc21`: the T/C runs as follows: (dose: 60.0 mg/kg/injection, schedule: Q01DX005 (ip), vehicle: Klucel (hydroxypropylcellulose) (HPC)) 106 % of control; (dose: 120.0 mg/kg/injection, schedule: Q01DX005 (ip), vehicle: Klucel (hydroxypropylcellulose) (HPC)) 107 % of control; (dose: 240.0 mg/kg/injection, schedule: Q01DX005 (ip), vehicle: Klucel (hydroxypropylcellulose) (HPC)) 105 % of control.

Turning to `CC(OCc1ccccc1)C(NC(=O)OC(C)(C)C)C(=O)ON1C(=O)CCC1=O` (centres undefined), the T/C reads like this: under setting [7], 109 % of control; under setting [8], 105 % of control; under setting [9], 96 % of control.

As to `N#CCC1(c2ccccc2)CCCCC1`, the T/C under setting [10] is 97 % of control, the T/C under setting [11] is 107 % of control and the T/C under setting [12] is 107 % of control.

For the compound `CN1C2CCC1C(Br)C=C2c1ccccc1` (centres undefined), the T/C (dose: 50.0 mg/kg/injection, schedule: Q01DX005 (ip), vehicle: saline) was 109 % of control.

Consider `COC(=O)[C@]12CCC(C)(C)C[C@H]1C1=CC[C@@H]3[C@@]4(C)C[C@H](O)[C@H](OC5OC(CO)C(O)C(O)C5O)C(CO)(CO)[C@@H]4CC[C@@]3(C)[C@]1(C)C[C@H]2O` (some centres undefined), for which the T/C was 94 % of control (dose: 2.5 mg/kg/injection, schedule: Q01DX005 (ip), vehicle: Klucel (hydroxypropylcellulose) (HPC)); 95 % of control (dose: 5.0 mg/kg/injection, schedule: Q01DX005 (ip), vehicle: Klucel (hydroxypropylcellulose) (HPC)); 100 % of control (dose: 10.0 mg/kg/injection, schedule: Q01DX005 (ip), vehicle: Klucel (hydroxypropylcellulose) (HPC)); 101 % of control (dose: 20.0 mg/kg/injection, schedule: Q01DX005 (ip), vehicle: Klucel (hydroxypropylcellulose) (HPC)).

Turning to `Nc1ccc(Cl)cn1`, the T/C by setting is: under setting [10], 90 % of control; under setting [11], 99 % of control; under setting [12], 99 % of control.

With `O=C(O)C1OC1C(=O)O` (centres undefined), the T/C is 100 % of control (dose: 75.0 mg/kg/injection, schedule: Q04DX003 (ip), vehicle: saline); 100 % of control (dose: 150.0 mg/kg/injection, schedule: Q04DX003 (ip), vehicle: saline); 100 % of control (dose: 300.0 mg/kg/injection, schedule: Q04DX003 (ip), vehicle: saline).

Take `CCN1C(=NCCO)NS(=O)(=O)c2ccccc21`: the T/C is 95 % of control under setting [13], 106 % of control under setting [14] and 99 % of control under setting [15].

Consider `CCS/C(C#N)=C(/OC)c1ccccc1Cl`, for which the T/C is, setting by setting: under setting [10], 89 % of control; under setting [11], 94 % of control.

As to `COc1ccc2cc3n(cc-2c1=O)CCc1cc2c(cc1-3)OCO2`, under “dose: 100.0 mg/kg/injection, schedule: Q04DX003 (ip), vehicle: water”, the T/C was 160 % of control.

In the case of `CCN(CC)c1ccc2cc(C(=O)c3cccs3)c(=O)oc2c1`, the T/C is, setting by setting: under setting [13], 104 % of control; under setting [14], 96 % of control; under setting [15], 103 % of control.

`O=C(CCSCCC(=O)N/N=C(\CO)C(O)C(O)C(O)CO)N/N=C(/CO)C(O)C(O)C(O)CO` (centres undefined): the T/C by setting is: (dose: 50.0 mg/kg/injection, schedule: Q01DX005 (ip), vehicle: suspension in saline) 99 % of control; (dose: 100.0 mg/kg/injection, schedule: Q01DX005 (ip), vehicle: suspension in saline) 104 % of control; (dose: 200.0 mg/kg/injection, schedule: Q01DX005 (ip), vehicle: suspension in saline) 97 % of control.

Turning to `C1=C(B2OCCNO2)CCCC1`, the T/C runs as follows: (dose: 100.0 mg/kg/injection, schedule: Q01DX001 (ip), vehicle: saline) 101 % of control; (dose: 200.0 mg/kg/injection, schedule: Q01DX001 (ip), vehicle: saline) 96 % of control; (dose: 400.0 mg/kg/injection, schedule: Q01DX001 (ip), vehicle: saline) 104 % of control.

`OC1(c2ccncc2)C=CCC1` (centres undefined): the T/C (dose: 100.0 mg/kg/injection, schedule: Q04DX002 (ip), vehicle: saline with Tween-80) was 95 % of control.

For the compound `CC1=CCC(C)C(C)(C)C1CC/C(C)=C/CCC1(C)C(CCCO)/C(=C(\C)C=O)CCC1(C)O` (centres undefined), for the setting “dose: 4.5 mg/kg/injection, schedule: Q01DX005 (ip), vehicle: Klucel (hydroxypropylcellulose) (HPC)”, the T/C was 152 % of control.

In the case of `O=C(O)C(=O)O.O=C(O)C(=O)O.O=C(O)C(=O)O.[Co]`, the T/C reads like this: (dose: 6.25 mg/kg/injection, schedule: Q04DX002 (ip), vehicle: saline) 91 % of control; (dose: 12.5 mg/kg/injection, schedule: Q04DX002 (ip), vehicle: saline) 100 % of control; under setting [3], 91 % of control.

Consider `NC(N)=N/N=C/c1ccc(-c2ccccc2)cc1`, for which the T/C reads like this: (dose: 6.25 mg/kg/injection, schedule: Q01DX009 (ip), vehicle: saline with Tween-80) 104 % of control; (dose: 6.25 mg/kg/injection, schedule: Q04DX003 (ip), vehicle: saline with Tween-80) 100 % of control; (dose: 12.5 mg/kg/injection, schedule: Q01DX009 (ip), vehicle: saline with Tween-80) 104 % of control; (dose: 12.5 mg/kg/injection, schedule: Q04DX003 (ip), vehicle: saline with Tween-80) 100 % of control; under setting [16], 100 % of control.

As to `CN(C)c1ccc2c(Cl)ccnc2c1`, the T/C (dose: 12.5 mg/kg/injection, schedule: Q01DX005 (ip), vehicle: saline with Tween-80) is 100 % of control; the T/C (dose: 25.0 mg/kg/injection, schedule: Q01DX005 (ip), vehicle: saline with Tween-80) was 103 % of control; the T/C under setting [4] is 103 % of control and 86 % of control.

Take `CCOc1c(N=Nc2cccc(Cl)c2)c(-c2ccccc2)nn1C(N)=S`: the T/C under setting [4] was 111 % of control, the T/C under setting [5] was 101 % of control and the T/C under setting [6] was 96 % of control.

`COc1cc(C#N)cc(OC)c1`: the T/C was 109 % of control under setting [16]; 100 % of control (dose: 50.0 mg/kg/injection, schedule: Q04DX003 (ip), vehicle: saline with Tween-80); 100 % of control (dose: 100.0 mg/kg/injection, schedule: Q04DX003 (ip), vehicle: saline with Tween-80); 100 % of control (dose: 200.0 mg/kg/injection, schedule: Q04DX003 (ip), vehicle: saline with Tween-80).

Turning to `CC(C)SC=O`, the T/C is 100 % of control under setting [17], 107 % of control under setting [18] and 106 % of control under setting [19].

As to `C[N+]1(Cc2ccccc2)C2CCC(O)C1CC2` (centres undefined), the T/C is, setting by setting: (dose: 15.0 mg/kg/injection, schedule: Q01DX005 (ip), vehicle: saline) 103 % of control; under setting [1], 100 % of control; under setting [2], 102 % of control.

Consider `CC1(C(=O)O)C2[Se]c3cc[se]c3C2C1(C)C(=O)O` (centres undefined), for which the T/C is 100 % of control under setting [4], 100 % of control under setting [5] and 104 % of control under setting [6].

`CCCSc1nc2ccc(NC(=O)/C=C/C(=O)O)cc2s1`: the T/C is 107 % of control under setting [17], 96 % of control under setting [18] and 103 % of control under setting [19].
